Values after ≈ are worked out from the molar mass of the structure shown.
Key:
Proteus vulgaris = test: Antibacterial activity against Proteus vulgaris ATCC6380; format: functional
Enterococcus faecalis = test: Antibacterial activity against Enterococcus faecalis ATCC13047; format: functional
[1] = system: Staphylococcus epidermidis; test: Antibacterial activity against Staphylococcus epidermidis; format: functional
[2] = system: Mycolicibacterium smegmatis; test: Antibacterial activity against Mycobacterium smegmatis; format: functional
Klebsiella oxytoca = test: Antibacterial activity against Klebsiella oxytoca ATCC8724; format: functional
Pseudomonas mevalonii = test: Antibacterial activity against Pseudomonas mevalonii; format: functional; settings: Pseudomonas sp. 'mevalonii'
Bacillus subtilis = test: Antibacterial activity against Bacillus subtilis ATCC19659; format: functional
Pseudomonas aeruginosa = test: Antibacterial activity against Pseudomonas aeruginosa; format: functional
Escherichia coli = test: Antibacterial activity against Escherichia coli ATCC25922; format: functional
Staphylococcus aureus = test: Antibacterial activity against Staphylococcus aureus; format: functional
[3] = system: Mycobacterium tuberculosis; test: Antitubercular activity against Mycobacterium tuberculosis H37Rv by microplate alamar blue assay; format: functional
[4] = Cytotoxicity against human Huh-7 cells assessed as reduction in cell viability incubated for 2 days by MTT assay; format: toxicity, cell-based; settings: time 2 day
[5] = Inhibition of ConA-induced IL-6 secretion in female BALB/c mouse splenocyte incubated for 48 hrs by ELISA; format: functional, cell-based
[6] = Inhibition of ConA-induced IL-1beta secretion in female BALB/c mouse splenocyte incubated for 48 hrs by ELISA; format: functional, cell-based
[7] = Inhibition of ConA-induced TNF-alpha secretion in female BALB/c mouse splenocyte incubated for 48 hrs by ELISA; format: functional, cell-based
HL-60 = test: Cytotoxicity against human HL-60 cells assessed as reduction in cell viability incubated for 24 hrs by MTT assay; format: functional, cell-based; settings: HL-60, 24 h
Jurkat E6.1 = test: Cytotoxicity against human Jurkat E6.1 cells assessed as reduction in cell viability incubated for 24 hrs by MTT assay; format: functional, cell-based; settings: Jurkat E6.1, 24 h
HepG2 = test: Antiproliferative activity against human HepG2 cells assessed as reduction in cell proliferation incubated for 24 hrs by MTT assay; format: functional, cell-based; settings: HepG2, 24 h
Cholinesterase [8] = molecular target: T1, Cholinesterase (Equus caballus, UniProt P81908); test: Inhibition of equine serum BChE using […] as substrate preincubated for 10 mins followed by substrate addition and measured after 5 mins by Ellman's reagent based spectrophotometric analysis
Acetylcholinesterase [9] = molecular target: T2, Acetylcholinesterase (Electrophorus electricus, UniProt O42275); test: Inhibition of electric eel AChE using […] as substrate preincubated for 10 mins followed by substrate addition and measured after 5 mins by Ellman's reagent based spectrophotometric analysis
Acetylcholinesterase [10] = molecular target: T3, Acetylcholinesterase (Homo sapiens, UniProt P22303); test: Inhibition of recombinant human AchE by Ellman's reagent based spectrophotometric analysis
Cholinesterase [11] = molecular target: T4, Cholinesterase (Homo sapiens, UniProt P06276); test: Inhibition of human BchE by Ellman's reagent based spectrophotometric analysis
[12] = Antiproliferative activity against human Caco-2 cells assessed as cell growth inhibition incubated for 72 hrs by MTT assay; format: toxicity, cell-based
[13] = Cytotoxicity against MDCK cells assessed as cell growth inhibition incubated for 72 hrs by MTT assay; format: toxicity, cell-based, Canis lupus familiaris; settings: dog
Candida albicans = test: Antifungal activity against Candida albicans MTCC 183 by agar streak dilution method; format: functional
Aspergillus niger = test: Antifungal activity Aspergillus niger MTCC 282 by agar streak dilution method; format: organism-based
Cholinesterase [14] = molecular target: T4, Cholinesterase; test: Inhibition of human BChE
Acetylcholinesterase [15] = molecular target: T3, Acetylcholinesterase; test: Inhibition of human erythrocyte AChE using acetylthiocholine as substrate preincubated for 5 mins followed by substrate addition by Ellman's reagent based spectrophotometric analysis
[16] = Cytotoxicity against human A375P cells assessed as cell viability incubated for 72 hrs by alamar blue reagent based assay; format: functional
[17] = system: Mycobacterium tuberculosis; test: Antitubercular activity against Mycobacterium tuberculosis H37Rv; format: functional
[18] = system: Mycobacterium tuberculosis; test: Antitubercular activity against Mycobacterium tuberculosis H37Rv assessed as inhibition of bacterial growth at 250 microg/ml relative to control; format: functional
SMMC-7721 = test: Antiproliferative activity against human SMMC-7721 cells assessed as reduction in cell proliferation incubated for 24 hrs by MTT assay; format: functional, cell-based; settings: SMMC-7721, 24 h
Cholinesterase [19] = molecular target: T1, Cholinesterase; test: Inhibition of equine serum BChE using […] as substrate measured after 2 mins by Ellman's reagent based spectrophotometric analysis
Acetylcholinesterase [20] = molecular target: T2, Acetylcholinesterase; test: Inhibition of electric eel AChE using […] as substrate measured after 2 mins by Ellman's reagent based spectrophotometric analysis

T1 sequence (P81908 whole entry): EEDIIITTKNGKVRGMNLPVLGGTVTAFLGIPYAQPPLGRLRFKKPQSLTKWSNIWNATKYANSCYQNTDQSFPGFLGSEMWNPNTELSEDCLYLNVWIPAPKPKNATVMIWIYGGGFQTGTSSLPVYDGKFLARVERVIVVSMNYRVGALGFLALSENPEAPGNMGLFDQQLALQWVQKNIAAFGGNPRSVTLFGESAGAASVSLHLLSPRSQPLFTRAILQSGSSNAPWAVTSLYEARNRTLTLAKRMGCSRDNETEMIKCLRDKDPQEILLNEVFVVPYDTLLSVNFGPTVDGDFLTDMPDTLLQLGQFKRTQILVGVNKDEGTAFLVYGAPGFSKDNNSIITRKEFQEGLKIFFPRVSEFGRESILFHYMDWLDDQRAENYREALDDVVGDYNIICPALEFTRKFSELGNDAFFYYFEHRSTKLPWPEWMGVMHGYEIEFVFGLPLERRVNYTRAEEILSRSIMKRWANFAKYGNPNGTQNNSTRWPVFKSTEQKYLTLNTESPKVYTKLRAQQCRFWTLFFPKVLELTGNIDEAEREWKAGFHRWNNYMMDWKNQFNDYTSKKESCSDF
T2 sequence (O42275 whole entry): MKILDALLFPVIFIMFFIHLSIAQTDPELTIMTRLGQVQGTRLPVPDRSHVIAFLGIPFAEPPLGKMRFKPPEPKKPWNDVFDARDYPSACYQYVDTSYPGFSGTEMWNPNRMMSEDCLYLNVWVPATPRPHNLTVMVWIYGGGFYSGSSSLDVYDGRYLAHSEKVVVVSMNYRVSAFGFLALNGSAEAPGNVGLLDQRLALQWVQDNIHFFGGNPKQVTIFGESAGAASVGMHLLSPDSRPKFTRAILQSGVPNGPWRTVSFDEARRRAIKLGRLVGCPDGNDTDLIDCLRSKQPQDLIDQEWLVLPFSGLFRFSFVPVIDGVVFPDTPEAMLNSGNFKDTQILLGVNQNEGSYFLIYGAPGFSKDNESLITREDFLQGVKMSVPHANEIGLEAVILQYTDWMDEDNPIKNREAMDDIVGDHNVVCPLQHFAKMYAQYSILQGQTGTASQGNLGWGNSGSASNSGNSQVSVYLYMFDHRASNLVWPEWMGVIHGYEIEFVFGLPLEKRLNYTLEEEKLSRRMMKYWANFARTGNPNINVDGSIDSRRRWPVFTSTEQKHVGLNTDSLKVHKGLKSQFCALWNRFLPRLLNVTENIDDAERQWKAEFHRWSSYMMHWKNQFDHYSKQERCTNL
T4 sequence (P06276 whole entry): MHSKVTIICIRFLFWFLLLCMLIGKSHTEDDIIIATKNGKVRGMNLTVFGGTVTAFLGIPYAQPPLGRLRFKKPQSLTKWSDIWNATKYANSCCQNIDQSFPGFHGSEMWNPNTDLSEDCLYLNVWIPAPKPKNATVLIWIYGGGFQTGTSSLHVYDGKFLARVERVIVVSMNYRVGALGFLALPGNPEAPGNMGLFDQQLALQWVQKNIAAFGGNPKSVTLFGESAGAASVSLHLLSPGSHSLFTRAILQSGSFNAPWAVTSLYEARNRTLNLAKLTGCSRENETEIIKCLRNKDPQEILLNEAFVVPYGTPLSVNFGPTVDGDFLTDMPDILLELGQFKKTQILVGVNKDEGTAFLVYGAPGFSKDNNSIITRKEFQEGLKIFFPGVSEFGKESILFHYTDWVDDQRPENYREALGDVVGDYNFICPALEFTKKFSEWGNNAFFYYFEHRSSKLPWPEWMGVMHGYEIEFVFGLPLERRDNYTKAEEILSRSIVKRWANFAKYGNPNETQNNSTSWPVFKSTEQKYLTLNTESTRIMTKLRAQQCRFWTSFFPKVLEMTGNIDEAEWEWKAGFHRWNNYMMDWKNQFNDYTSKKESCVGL
T3 sequence (P22303 whole entry): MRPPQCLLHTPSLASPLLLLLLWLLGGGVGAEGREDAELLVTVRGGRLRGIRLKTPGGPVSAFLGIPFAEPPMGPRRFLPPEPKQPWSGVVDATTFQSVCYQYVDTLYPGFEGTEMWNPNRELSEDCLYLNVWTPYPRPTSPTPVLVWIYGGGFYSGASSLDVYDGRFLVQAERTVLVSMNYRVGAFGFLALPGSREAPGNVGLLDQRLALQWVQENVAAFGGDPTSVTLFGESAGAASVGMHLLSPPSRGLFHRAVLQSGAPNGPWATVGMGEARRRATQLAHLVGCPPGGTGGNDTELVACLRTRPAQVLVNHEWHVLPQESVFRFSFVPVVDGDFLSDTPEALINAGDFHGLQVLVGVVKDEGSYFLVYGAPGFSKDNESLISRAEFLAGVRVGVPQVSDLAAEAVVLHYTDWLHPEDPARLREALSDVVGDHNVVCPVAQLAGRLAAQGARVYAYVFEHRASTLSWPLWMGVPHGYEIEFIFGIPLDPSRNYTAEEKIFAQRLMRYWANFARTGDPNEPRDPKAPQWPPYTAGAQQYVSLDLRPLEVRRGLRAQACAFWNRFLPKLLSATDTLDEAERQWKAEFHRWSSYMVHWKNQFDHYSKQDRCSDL

CC1(C)CC[C@]2(C(=O)OCCNc3ccnc4ccc(Cl)cc34)CC[C@]3(C)C(=CC[C@@H]4[C@@]5(C)CC[C@H](O)C(C)(C)[C@@H]5CC[C@]43C)[C@@H]2C1
MIC (Proteus vulgaris): 2500 µg/mL (≈ 3780 µM) | MIC (Enterococcus faecalis): 1250 µg/mL (≈ 1890 µM) | MIC [1]: 1250 µg/mL (≈ 1890 µM) | MIC [2]: 1250 µg/mL (≈ 1890 µM) | MIC (Klebsiella oxytoca): 1250 µg/mL (≈ 1890 µM) | MIC (Pseudomonas mevalonii): 2500 µg/mL (≈ 3780 µM) | MIC (Bacillus subtilis): 2500 µg/mL (≈ 3780 µM) | MIC (Pseudomonas aeruginosa): 2500 µg/mL (≈ 3780 µM) | MIC (Escherichia coli): 2500 µg/mL (≈ 3780 µM) | MIC (Staphylococcus aureus): 1250 µg/mL (≈ 1890 µM)

COc1ccc(/C=C/C(=N/NC(N)=O)c2ccc(Nc3ccnc4cc(Cl)ccc34)cc2)cc1OC
MIC [3]: 1.56 µM (≈ 0.783 µg/mL)

CCN(CCCC(C)Nc1ccnc2cc(Cl)ccc12)CCNC(=O)C(F)(F)C1CCN(C(=O)C2OC(OC)C3OC(C)(C)OC23)CC1 (centres undefined)
CC50 at 48 h [4]: 16900 nM | IC50 [5]: 1870 nM | IC50 [6]: 1190 nM | IC50 [7]: 4410 nM

Clc1ccc(C2CC(c3ccc(Nc4ccnc5cc(Cl)ccc45)cc3)=NN2)cc1 (centres undefined)
IC50 (HL-60): 6170 nM | IC50 (Jurkat E6.1): 6310 nM

O=C(N/N=C/c1nc2ccccc2[nH]1)c1ccc(Nc2ccnc3ccccc23)cc1
IC50 (HepG2): > 80000 nM

Oc1ccccc1CNCCNc1ccnc2cc(Cl)ccc12
IC50 (Cholinesterase [8]): 30300 nM | IC50 (Acetylcholinesterase [9]): 1970 nM

CCN(CCCC(C)Nc1ccnc2cc(Cl)ccc12)CCNC(=O)C(F)(F)C1CCN(CC(O)C(F)(F)F)CC1 (centres undefined)
CC50 at 48 h [4]: 16700 nM | IC50 [5]: 1600 nM | IC50 [6]: 720 nM | IC50 [7]: 15900 nM

Clc1ccc2c(NCCNC34CC5CC(CC(C5)C3)C4)ccnc2c1
Ki (Acetylcholinesterase [10]): 1600 nM | Ki (Cholinesterase [11]): 920 nM

Clc1ccc2c(N3CCN(c4ccc(-c5nc6ccccc6[nH]5)cc4)CC3)ccnc2c1
GI50 at 72 h [12]: > 100000 nM | IC50 at 72 h [13]: > 100000 nM

Oc1ccccc1/C=N/CCCCCCNc1ccnc2cc(Cl)ccc12
IC50 (Cholinesterase [8]): 58400 nM | IC50 (Acetylcholinesterase [9]): 730 nM

CCCCCOc1ccc(/C=N/Nc2cc(C)nc3ccc(Cl)cc23)cc1
MIC (Candida albicans): 25 µg/mL (≈ 65.5 µM) | MIC (Aspergillus niger): 12.5 µg/mL (≈ 32.7 µM)

Cc1ccc(CNCCCCCCNc2ccnc3cc(Cl)ccc23)c(O)c1
IC50 (Cholinesterase [8]): 1580 nM | IC50 (Acetylcholinesterase [9]): 260 nM

CC(C)(C)c1ccc(CNCCNc2c3c(nc4ccccc24)CCCCC3)c(C(C)(C)C)c1O
IC50 (Cholinesterase [14]): 84 nM | IC50 (Acetylcholinesterase [15]): 1900 nM

COc1ccc(C2CC(c3cccc(Nc4ccnc5cc(Cl)ccc45)c3)=NN2)cc1OC (centres undefined)
IC50 (HL-60): 940 nM | IC50 (Jurkat E6.1): 3170 nM

CCN(CCCC(C)Nc1ccnc2cc(Cl)ccc12)CCNC(=O)C(F)(F)C1CCN(CCOCCOC)CC1 (centres undefined)
CC50 at 48 h [4]: 5750 nM | IC50 [5]: 2520 nM | IC50 [6]: 1810 nM | IC50 [7]: 24400 nM

Clc1ccc2c(NCCCN(CCCCN(CCCNc3ccnc4cc(Cl)ccc34)Cc3ccccc3)Cc3ccccc3)ccnc2c1
IC50 [16]: 269 nM

NC(=O)N/N=C(/C=C/c1ccc(Br)cc1)c1ccc(Nc2ccnc3cc(Cl)ccc23)cc1
MIC [3]: 1.56 µM (≈ 0.812 µg/mL)

Cc1ccc(S(=O)(=O)NCCCCNc2c3c(nc4ccccc24)CCCC3)cc1
IC50 (Cholinesterase [14]): 131 nM

O=C(NCCNc1ccnc2cc(Cl)ccc12)c1ccc(-c2nc3ccccc3[nH]2)cc1
GI50 at 72 h [12]: 16400 nM | IC50 at 72 h [13]: 100000 nM

O=C(NNc1ccnc2cc(Cl)ccc12)c1cc(-c2ccccc2)nc2ccccc12
MIC [17]: 38 µM (≈ 16.1 µg/mL) | inhibition at 250 µg/mL [18]: 99%

CN(CCCCN(C)CCCNc1ccnc2cc(Cl)ccc12)CCCNc1ccnc2cc(Cl)ccc12
IC50 [16]: 269 nM

COc1ccc(/C=N/NC(=O)c2ccc(Nc3ccnc4ccccc34)cc2)cc1OC
IC50 (HepG2): 12600 nM | IC50 (SMMC-7721): 9600 nM

COc1cc(/C=C/C(=O)NCCCNc2cc(C)nc3ccccc23)ccc1OCc1ccccc1
IC50 (Cholinesterase [19]): 100 nM | IC50 (Acetylcholinesterase [20]): 2470 nM

— ChEMBL document CHEMBL6177931, “Exploring diverse frontiers: Advancements of bioactive 4-aminoquinoline-based molecular hybrids in targeted therapeutics and beyond” (Eur J Med Chem, 2024)
